# Entries after “also recorded” stand apart in the source; their conditions may differ.
# T1: EpCAM (Homo sapiens, UniProt P16422)
# T1 sequence (P16422 24-314): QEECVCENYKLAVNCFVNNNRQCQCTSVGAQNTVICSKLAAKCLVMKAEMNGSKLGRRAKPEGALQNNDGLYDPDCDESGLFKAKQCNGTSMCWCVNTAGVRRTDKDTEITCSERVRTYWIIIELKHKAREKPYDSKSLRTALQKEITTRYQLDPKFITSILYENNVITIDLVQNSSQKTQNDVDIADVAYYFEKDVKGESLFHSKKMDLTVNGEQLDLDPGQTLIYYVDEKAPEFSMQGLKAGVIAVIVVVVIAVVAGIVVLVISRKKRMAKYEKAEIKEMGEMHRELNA
# B1: EpAb2-6: anti-EpCAM neutralizing monoclonal antibody targeting EpEX; VH SEQ ID NO: 15, VL SEQ ID NO: 16 (antibody, listed as Homo sapiens, V domains shown)
# VH: VKLQESGPELKKPGETVKISCKASGYTFTDYSMHWVKQAPGKGLKWMGWINTETGEPTYADDFKGRFAFSLETSASTAYLQINNLKNEDTATYFCARTAVYWGQGTTVTVSS
# VL: DIQMTQSPSSLSASLGERVSLTCRASQEISVSLSWLQQEPDGTIKRLIYATSTLDSGVPKRFSGSRSGSDYSLTISSLESEDFVDYYCLQYASYPWTFGGGTKLEIKRADAAPTVS
# Experiments:
# HCT116 cells = assay: Transwell migration/invasion and wound healing assay, HCT116; assay type: cell-based, human; settings: for EpEX-induced migration and invasion: HCT116 cells, discussion statement; for EpEX-induced invasion: 50 nM EpEX, LY 25 μM, U0 20 μM, PF 10 μM, Transwell with matrigel, FIG. 4K
# Procedure: FIGS. 3A to 3H. EpEX induces the activation of ERK and FAK-AKT signaling pathway. Wild type (WT) or EpCAM knockout (KO) HCT116 cells after EpEX-His treatment. (FIG. 3A) The levels of phosphorylated HGFR, AKT, FAK, GSK3β, ERK, ADAM17, and presenilin 2 were assayed by Western blotting. (FIG. 3B) Colony formation was examined by crystal violet staining. (FIG. 3C) HCT116 cells were treated with TAPI (ADAM17 inhibitor) or DAPT (γ-secretase inhibitor) for 24 hours, and the phosphorylation of HGFR, AKT, and ERK was analyzed by Western blotting, and EpEX protein level in culture medium was examined by immunoprecipitation and Western blotting. (FIG. 3D) HCT116 and HT29 cells were starved for 16 h, then treated with EpEX-His (50 nM) and HGF (0.5 nM) for 15 min. The levels of phosphorylated HGFR, AKT, and ERK were examined by Western blotting. (FIG. 3E) HCT116 cells were starved for 16 h, then treated with 50 nM EpEX-His for 15 min. HGFR inhibitor SU11274 (SU, 10 μM), AKT inhibitor LY294002 (LY, 25 μM), ERK inhibitor U0126 (U0, 20 μM), or FAK inhibitor PF-562271 (PF, 10 μM) were applied 1 h before EpEX treatment. Phosphorylation of AKT, ERK, and FAK was examined by Western blotting. (FIG. 3F) HCT116 cells were starved for 16 h, then treated with 50 nM EpEX, and SU (10 μM), LY (25 μM), U0 (20 μM) or PF (10 μM). Colony formation was examined by crystal violet staining after treatment for 7 days. The relative colony densities are shown. Migration ability was examined by the (FIG. 3G) wound healing assay at the indicated times. (FIG. 3H) The numbers of migration cell was assessed by a Transwell after treatment for 24 h.
# FIGS. 4A to 4L. EpEX induces EMT and invasion by stabilizing β-catenin and Snail through decreasing GSK3β activity. (FIG. 4A) The protein expression of EMT markers and regulators was detected by Western blotting in Wild-type (WT) or EpCAM knockout (KO) HCT116 cells after EpEX treatment. (FIG. 4B) Cell invasion was examined by Transwell chamber assay with matrigel. (FIG. 4C) WT or KO HCT116 and HT29 cells were starved for 16 h, then treated with 0.5 nM of HGF with 2% FBS for 24 h. EMT-related protein expression (E-cadherin, vimentin, and Snail) was examined by Western blotting. (FIG. 4D) WT or KO HCT116 and HT29 cells were treated with HGF (0.5 nM) for 24 h. Invasion by HCT116 and HT29 cells was examined by Transwell chamber assay with matrigel. (FIG. 4E) HCT116 and HT29 cells were starved for 16 h, then treated with 0.5 nM of HGF with 2% FBS for 24 h. EMT-related protein expression (E-cadherin, Vimentin, and Snail) was examined by Western blotting. (FIG. 4F) HCT116 and HT29 cells were starved for 16 h, then treated with 0.5 nM of HGF with 2% FBS for 24 h. Cell invasion was assessed by a Transwell assay with matrigel. (FIG. 4G) HCT116 cells after shLuc and shHGFR treatment were treated with 50 nM of EpEX-His. HCT116 cells after shLuc and shHGFR treatment were treated with 50 nM of EpEX-His with 2% FBS for 24 h. EMT-related protein expression (E-cadherin, Vimentin, and Snail) was examined by Western blotting. (FIG. 4H) Cell invasion was examined by Transwell chamber assay with matrigel. (FIG. 4I) Starved HCT116 cells were treated SU (10 μM) for 1 h, followed by treatment with EpEX-His (50 nM) for 24 h. Phosphorylated GSK3β, active-β-catenin, and Snail were detected by Western blotting. (FIG. 4J) HCT116 cells were starved for 16 h, then treated with 50 nM EpEX-His for 24 min. AKT inhibitor LY294002 (25 μM), ERK inhibitor U0126 (20 μM), or PF-562271 (10 μM) were applied 1 h before EpEX treatment. Protein expression of phosphorylated GSK3β and Snail was examined by Western blotting. (FIG. 4K) HCT116 cells were starved for 16 h, then treated with 50 nM EpEX, and SU (10 μM), LY (25 μM), UO (20 μM) or PF (10 μM). Cell invasion was examined by Transwell chamber assay with matrigel. (FIG. 4L) Protein expression was analyzed by Western blotting in EpEX-His (50 nM) treated HCT116 cells after treatment with or without 2 μM GSK3β inhibitor (BIO) for 24 h. […]
# EpCAM = target: T1, EpCAM; settings: cited from earlier work
Molecule,EpEX-induced migration and invasion (HCT116 cells),EpEX-induced invasion (HCT116 cells; HCT116),also measured
"Cc1[nH]c(C=C2C(=O)Nc3ccc(S(=O)(=O)N(C)c4cccc(Cl)c4)cc32)c(C)c1C(=O)N1CCN(C)CC1 (stereo in doubt) [SU11274, (3Z)-N-(3-Chlorophenyl)-3-({3,5-dimethyl-4-[(4-methylpiperazin-1-yl)carbonyl]-1H-pyrrol-2-yl}methylene)-N-methyl-2-oxo-2,3-dihydro-1H-indole-5-sulfonamide]",attenuate EpEX-induced migration and invasion,,
"MT201: human anti-EpCAM antibody, adecatumumab (MT201)",,,"EpCAM domains bound (EpCAM; other anti-EpCAM antibodies, comparison in the description): target only the well-described EGF I domain of EpCAM; also recorded: binding to domain I only"
N#CC(=C(/N)Sc1ccccc1N)/C(C#N)=C(\N)Sc1ccccc1N [U0126],attenuate EpEX-induced migration and invasion,suppressed,
CN(c1ncccc1CNc1nc(Nc2ccc3c(c2)CC(=O)N3)ncc1C(F)(F)F)S(C)(=O)=O [PF-562271],attenuate EpEX-induced migration and invasion,suppressed,
B1,,,"binding epitope in EpCAM (EpCAM; previous study (Liao et al., 2015)): LYD motif; invasion and migration activities of HCT116 cells (HCT116 cells; EpAb2-6 10 μg/ml, wound healing, Transwell with matrigel 24 h): significantly reduced; also recorded: attenuate the invasion and migration capacity of HCT116 cells; effects of EpAb2-6 on invasion and migration when treated with HGF after EpAb2-6 (HCT116 cells; HCT116, EpAb2-6 10 μg/ml and HGF 0.5 nM, FIGS. 6C and 6D): partially blunted"

# Source: patent publication US20250269018A1, “COMBINED CANCER THERAPY WITH AN EPITHELIAL CELL ADHESION MOLECULE (EPCAM) INHIBITOR AND A HEPATOCYTE GROWTH FACTOR RECEPTOR (HGFR) INHIBITOR” (ACADEMIA SINICA, priority 2021, published 2025)
